Substitutions are numbered along the chain they refer to. “And” between values parts separate entries of the source, which are not always exact repeats. Equal values may be shown once. Read-outs that look alike come from different tables or passages of the source.
Legend:
hTA1 C178S = target: T1, hTA1 C178S (Homo sapiens, UniProt Q96RJ0, C178S); assay: GloSensor cAMP accumulation assay, C178S mutant; assay type: cell-based; details: for Normalized Luminescence Counts: C178S (N=2), log[Agonist]
T1 construct: expressed in transfected cells; host or cells: HEK293T
T1 sequence (Q96RJ0 1-339 C178S): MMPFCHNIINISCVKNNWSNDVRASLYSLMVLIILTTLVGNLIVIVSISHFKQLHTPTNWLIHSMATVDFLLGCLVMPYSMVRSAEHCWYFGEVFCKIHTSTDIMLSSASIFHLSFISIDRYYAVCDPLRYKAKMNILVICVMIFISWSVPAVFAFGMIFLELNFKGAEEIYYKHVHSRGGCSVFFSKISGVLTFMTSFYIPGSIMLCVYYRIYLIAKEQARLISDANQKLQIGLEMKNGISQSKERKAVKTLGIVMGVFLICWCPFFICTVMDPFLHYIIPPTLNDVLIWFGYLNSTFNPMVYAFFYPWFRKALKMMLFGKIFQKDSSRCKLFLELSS

hTA1 b2N = target: T2, hTA1 b2N (Homo sapiens, UniProt Q96RJ0); assay: GloSensor cAMP accumulation assay, b2N construct; assay type: cell-based; details: b2N, n=2
T2 construct: read by me as the first 25 residues of β2AR (N); expressed in transfected cells; host or cells: HEK293T
T2 sequence (Q96RJ0 with tags, fused parts or gaps): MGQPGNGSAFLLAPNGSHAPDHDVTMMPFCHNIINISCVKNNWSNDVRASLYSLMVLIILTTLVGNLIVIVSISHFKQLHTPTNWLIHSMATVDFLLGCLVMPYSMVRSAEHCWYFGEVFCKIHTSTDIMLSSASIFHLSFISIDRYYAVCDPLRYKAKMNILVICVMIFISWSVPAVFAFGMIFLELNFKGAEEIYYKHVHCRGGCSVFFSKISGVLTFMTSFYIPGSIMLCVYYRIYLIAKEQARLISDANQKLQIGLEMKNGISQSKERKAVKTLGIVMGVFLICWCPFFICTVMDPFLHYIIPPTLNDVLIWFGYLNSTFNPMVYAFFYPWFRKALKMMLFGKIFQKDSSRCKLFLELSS

hTA1 V184P = target: T3, hTA1 V184P (Homo sapiens, UniProt Q96RJ0, V184P); assay: GloSensor cAMP accumulation assay, V184P mutant; assay type: cell-based
T3 construct: expressed in transfected cells; host or cells: HEK293T
T3 sequence (Q96RJ0 1-339 V184P): T1 sequence (Q96RJ0 1-339 C178S) with S178C, V184P

hTA1 R83H = target: T4, hTA1 R83H (Homo sapiens, UniProt Q96RJ0, R83H); assay: GloSensor cAMP accumulation assay, R83H mutant; assay type: cell-based; details: R83H;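 also: cells transiently co-expressing hTA1 and a cAMP GloSensor, luminescence read 30 min after agonist addition at room temperature, concentration–response fitted by non-linear regression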
T4 construct: expressed in transfected cells; host or cells: HEK293T
T4 sequence (Q96RJ0 1-339 R83H): T1 sequence (Q96RJ0 1-339 C178S) with R83H, S178C

hTA1 T194A = target: T5, hTA1 T194A (Homo sapiens, UniProt Q96RJ0, T194A); assay: GloSensor cAMP accumulation assay, T194A mutant
T5 sequence (Q96RJ0 1-339 T194A): T1 sequence (Q96RJ0 1-339 C178S) with S178C, T194A

ΔpEC50 values (each mutant value - WT average), Mean (hTA1 C178S; C178S, Asenapine): -0.5777 and -0.5455
Emax values, Mean (hTA1 C178S; C178S, Asenapine, per experiment, 3 replicates): 87.2953 and 116.77
EC50 (hTA1 C178S; C178S, Asenapine, per experiment, 3 replicates, read-out: pEC50 values Mean (converted)): 327 nM and 304 nM
EC50 (hTA1 C178S; C178S, n=2, read-out: EC50): 315 nM
Emax (hTA1 C178S; C178S, n=2, read-out: Span ± SEM (Emax normalized to β-PEA)): 102%
Emax (hTA1 C178S; C178S, relative to β-PEA, read-out: Emax): 102%
EC50 (hTA1 b2N; read-out: EC50): 72.8 nM
Emax (hTA1 b2N; read-out: Span ± SEM (Emax normalized to β-PEA)): 97.39 ± 0.96%
EC50 (hTA1 V184P; V184P, n=2, read-out: EC50): 168 nM
Emax (hTA1 V184P; V184P, n=2, read-out: Span ± SEM (Emax normalized to β-PEA)): 88.3 ± 8.11%
Emax values, Mean (hTA1 V184P; V184S (so in the source), Asenapine, per experiment, 3 replicates): 96.3704 and 80.1474
EC50 (hTA1 V184P; V184S (so in the source), Asenapine, per experiment, 3 replicates, read-out: pEC50 values Mean (converted)): 246 nM and 114 nM
ΔpEC50 values (each mutant value - WT average), Mean (hTA1 R83H; Asenapine): -1.278 and -1.426
Emax values, Mean (hTA1 R83H; Asenapine, per experiment, 3 replicates): 22.9611 and 11.3307
EC50 (hTA1 R83H; Asenapine, per experiment, 3 replicates, read-out: pEC50 values Mean (converted)): 1640 nM and 2310 nM
EC50 (hTA1 R83H; n=2, read-out: EC50): 1950 nM
Emax (hTA1 R83H; n=2, read-out: Span ± SEM (Emax normalized to β-PEA)): 17.1 ± 5.82%
EC50 (hTA1 T194A; EC50, T194A): 540 nM
Emax values of Asenapine (hTA1 T194A; T194A, Mean of one experiment): 80.8072
ΔEmax values (each mutant value - WT average), T194A, Mean (hTA1 T194A; hTA1 T194A mutant vs WT average, Figure 6B, each line is one experiment (3 replicates)): 2.977 and -7.9001
EC50 (hTA1 T194A; pEC50 values of Asenapine, T194A, Mean of one experiment): 383 nM and 477 nM
EC50 (hTA1 T194A; pEC50 ± SEM, T194A): 457 nM
Emax (hTA1 T194A; read-out: Emax values of Asenapine, T194A, Mean of one experiment): 91.7%
Emax (hTA1 T194A; read-out: Span ± SEM (Emax normalized to β-PEA), T194A): 120%
Compound: CN1CC2c3ccccc3Oc3ccc(Cl)cc3C2C1 (stereo not shown) [asenapine]
Normalized Luminescence Counts (hTA1 C178S; Asenapine, M -5): 75.4368 and 92.2127 and 77.6331 and 138.575 and 114.073 and 74.6126
Normalized Luminescence Counts (hTA1 C178S; Asenapine, M -5.522): 79.5957 and 78.8948 and 73.2872 and 121.163 and 122.988 and 72.6381
Normalized Luminescence Counts (hTA1 C178S; Asenapine, M -6): 71.3246 and 64.9226 and 70.9975 and 119.907 and 121.163 and 96.5417
Normalized Luminescence Counts (hTA1 C178S; Asenapine, M -6.522): 41.1373 and 42.2588 and 39.3616 and 54.3289 and 32.5494 and 43.2597
